Experimental data reported in patent US7772227B2, “Tricyclic 1-[(indol-3-yl)carbonyl]piperazine derivatives as cannabinoid CB1 receptor agonists” (N.V. Organon, priority 2003, dated 2010).
Counter-ions that a name gives are not always drawn. Like-named read-outs stand apart in the source and are kept apart here.

Columns and labels:
human CB1 receptor = biological target: T1, human CB1 receptor (Homo sapiens, UniProt P21554); test: Efficacy and potency at the human CB1 receptor expressed in CHO cells (luciferase reporter gene); format: cell-based; settings: 5 h incubation at 37° C.
T1 construct: expressed in transfected cells; host or cells: Chinese Hamster Ovary (CHO) cells
Procedure: Methods to determine receptor binding as well as in vitro biological activity of cannabinoid receptor modulators are well known in the art. In general, expressed receptor is contacted with the compound to be tested and binding or stimulation or inhibition of a functional response is measured.
Chinese Hamster Ovary (CHO) cells expressing the human CB1 receptor and a luciferase reporter gene were suspended in phenol red/serum free DMEM/F-12 nut mix containing penicillin/streptomycin (50 U/50 μg/ml) and fungizone (1 μg/ml) and seeded into 96 well plates at a density of 3×10^4 cells per well (100 μl final volume). Cells were incubated overnight (approx. 18 h at 37° C., 5% CO2/95% air) prior to assay.
The test compound (10 mM solution in dimethylsulfoxide) was diluted in F12 Nut Mix to give a range of stock solutions from 0.11 mM to 0.11 nM. The stock solutions (10 μl) were added directly to the relevant wells. The plates were incubated at 37° C. for 5 h to allow agonist-induced expression of the luciferase enzyme. Under subdued light, LucLite substrate (Packard; reconstituted as per manufacturer's instructions; 100 μl) was added to each well. Plates were covered with Top Seal and then incubated at room temperature for 5 minutes before counting on the Packard TopCount (single photon counting, 0.01 minute count time, 5 minute count delay).
A “best-fit” curve was fitted by a minimum sum of squares method to the plot of counts per second (CPS) against compound concentration (M) to obtain an EC50 value.

mice = test: Tail flick latency in mice; format: in vivo; settings: Mus musculus, iv, administered intravenously, ED50 calculated at Tmax, read-out: ED50 (increase of tail flick latency)
Procedure: Mice were trained to sit still in a tail flick apparatus (Ugo Basile, Italy) whilst tail flick latency was measured. The tail was exposed to a focused beam of radiant heat at a point approximately 2.5 cm from the tip. Tail flick latency was defined as the interval between the appliance of the thermal stimulus and withdrawal of the tail. A 12 second cut-off was employed to prevent tissue damage. Four groups of eight mice were treated with vehicle or one of three doses of the test compound, administered intravenously (vehicle: saline 9 g/l; injection volume 10 ml/kg). Tail flick latency was measured before administration of the test compound and at regular intervals (typically 20, 40 and 60 minutes) after compound administration. The ED50 was calculated at Tmax.

[1] = CHO cells expressing human CB1 receptor and luciferase reporter gene, read-out: pEC50 (converted)
[2] = CHO cells expressing human CB1 receptor and luciferase reporter gene

T1 sequence (P21554 whole entry): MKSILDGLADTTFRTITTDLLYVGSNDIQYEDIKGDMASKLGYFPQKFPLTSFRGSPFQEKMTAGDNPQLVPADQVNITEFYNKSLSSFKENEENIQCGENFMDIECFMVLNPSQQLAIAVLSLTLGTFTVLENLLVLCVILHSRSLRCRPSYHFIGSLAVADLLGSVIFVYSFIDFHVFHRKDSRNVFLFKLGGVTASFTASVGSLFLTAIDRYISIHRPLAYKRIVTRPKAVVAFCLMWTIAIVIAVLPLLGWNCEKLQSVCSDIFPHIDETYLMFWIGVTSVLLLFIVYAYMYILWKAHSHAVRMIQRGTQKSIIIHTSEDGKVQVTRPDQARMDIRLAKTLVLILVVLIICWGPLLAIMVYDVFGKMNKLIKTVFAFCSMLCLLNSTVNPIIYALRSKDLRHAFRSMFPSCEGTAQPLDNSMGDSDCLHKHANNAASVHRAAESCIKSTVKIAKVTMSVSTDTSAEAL

| Structure (SMILES) | EC50 (human CB1 receptor; [1]) [nM] | ED50 (mice) [µmol/kg] | pEC50 (human CB1 receptor; [2]) | other results |
| --- | --- | --- | --- | --- |
| CCN1CCN(C(=O)c2cn3c4c(cccc24)CCC3C2CCCCC2)CC1 (single isomer, unassigned; (+)) [Example 13, (+)-4-Cyclohexyl-5,6-dihydro-1-(4-ethylpiperazin-1-ylcarbonyl)-4H-pyrrolo[3,2,1-ij]-quinoline hydrochloride salt] | 50.1 | – | – | – |
| CN1CCN(C(=O)c2cn3c4c(cccc24)CCC3C2CCCCC2)CC1 (single isomer, unassigned; (+)) [Example 14, (+)-(4-Cyclohexyl-5,6-dihydro-1-(4-methylpiperazin-1-ylcarbonyl)-4H-pyrrolo[3,2,1-ij]-quinoline hydrochloride salt] | 79.4 | < 5 | – | – |
| CCN1CCN(C(=O)c2cn3c4c(cccc24)CCC3C2CCCC2)CC1 (single isomer, unassigned; (-)) [Example 12B, (−)-4-Cylclopentyl-5,6-dihydro-1-(4-ethylpiperazin-1-ylcarbonyl)-4H-pyrrolo[3,2,1-ij]quinoline hydrochloride salt] | 39.8 | – | – | – |
| CCN1CCN(C(=O)c2cn3c4c(cccc24)CCC3C2CCCCC2)CC1 (single isomer, unassigned; (-)) [Example 15, (−)-(4-Cyclohexyl-5,6-dihydro-1-(4-ethylpiperazin-1-ylcarbonyl)-4H-pyrrolo[3,2,1-ij]quinoline hydrochloride salt] | 31.6 | < 5 | – | – |
| CN1CCN(C(=O)c2cn3c4c(cccc24)CCC3C2CCCCC2)CC1 (single isomer, unassigned; (-)) [Example 16, (−)-(4-Cyclohexyl-5,6-dihydro-1-(4-methylpiperazin-1-ylcarbonyl)-4H-pyrrolo[3,2,1-ij]-quinoline hydrochloride salt] | 25.1 | – | – | – |
| CCN1CCN(C(=O)c2cn3c4c(cccc24)OC[C@H]3C2CCCCC2)CC1.Cl [Example 1, (R)-3-Cyclohexyl-2,3-dihydro-6-(4-ethylpiperazin-1-ylcarbonyl)pyrrolo[1,2,3-de]-1,4-benzoxazine hydrochloride salt] | – | – | 7.5 | – |
| O=C(c1cn2c3c(cccc13)OC[C@H]2C1CCCCC1)N1CCN2CCCC[C@H]2C1 [Example 2, (R)-3-Cyclohexyl-2,3-dihydro-6-[(S)-octahydro-2H-pyrido[1,2-a]pyrazin-2-ylcarbonyl]-pyrrolo[1,2,3-de]-1,4-benzoxazine hydrochloride salt] | – | < 5 | – | EC50 (human CB1 receptor; pEC50, CHO cells expressing human CB1 receptor and luciferase reporter gene): 10 nM |
| C[C@H]1CN(C(=O)c2cn3c4c(cccc24)OC[C@H]3C2CCCCC2)CCN1C.Cl [Example 4, (R)-3-Cyclohexyl-2,3-dihydro-6-[(S)-3,4-dimethylpiperazin-1-ylcarbonyl]pyrrolo[1,2,3-de]-1,4-benzoxazine hydrochloride salt] | – | < 5 | 7.8 | – |
| CN1CCN(C(=O)c2cn3c4c(cccc24)OC[C@H]3C2CCCCC2)CC1.Cl [Example 5C, (R)-3-Cyclohexyl-2,3-dihydro-6-[4-methylpirerazin-1-ylcarbonyl]pyrrolo[1,2,3-de]-1,4-benzoxazine hydrochloride salt] | – | – | 7.0 | – |
| C[C@@H]1CN(C(=O)c2cn3c4c(cccc24)OC[C@H]3C2CCCCC2)C[C@H](C)N1C.Cl [Example 7, (R)-3-Cyclohexyl-2,3-dihydro-6-[(cis)-3,4,5-trimethylpiperazin-1-ylcarbonyl]pyrrolo[1,2,3-de]-1,4-benzoxazine hydrochloride salt] | – | – | 8.2 | – |
| CCN1[C@H](C)CN(C(=O)c2cn3c4c(cccc24)OC[C@H]3C2CCCCC2)C[C@@H]1C.Cl [Example 8, (R)-3-Cyclohexyl-2,3-dihydro-6-[(cis)-3,5-dimethyl-4-ethylpiperazin-1-ylcarbonyl]-pyrrolo[1,2,3-de]-1,4-benzoxazine hydrochloride salt] | – | – | 8.4 | – |
| C[C@@H]1CN(C(=O)c2cn3c4c(cccc24)OC[C@H]3C2CCCCC2)C[C@H](C)N1CCO.Cl [Example 9, (R)-3-Cyclohexyl-2,3-dihydro-6-[(cis)-3,5-dimethyl-4-(2-hydroxyethyl)piperazin-1-ylcarbonyl]pyrrolo[1,2,3-de]-1,4-benzoxazine hydrochloride salt] | – | – | 8.2 | – |
| COCCN1[C@H](C)CN(C(=O)c2cn3c4c(cccc24)OC[C@H]3C2CCCCC2)C[C@@H]1C.Cl [Example 10, (R)-3-Cyclohexyl-2,3-dihydro-6-[(cis)-3,5-dimethyl-4-(2-methoxyethyl)piperazin-1-yl-carbonyl]pyrrolo[1,2,3-de]-1,4-benzoxazine hydrochloride salt] | – | – | 8.3 | – |
